Reference: US6818621B2, “Osteopontin-derived chemotactic and inhibitory agents and uses therefor” (Children's Medical Center Corporation, priority 1999, dated 2004)
Marks after values point to notes of the source that are not given here. Where no end group is shown, it is not given here.

Tests used:
[1] = tested on: cells recruited into the peritoneum; test: In vivo chemotaxis after injection of peptide into the peritoneal cavity, lavage and flow cytometry; set-up: species or system C57 black mice; settings: for induction ratio, Total / induction ratio, Total CD44 / induction ratio, B-lymphocytes / induction ratio, T-lymphocytes / induction ratio, Monocytes: 25 nmols i.p., 6 hours, normalized to PBS-injected mouse, average of 6 mice; for induction ratio, B-lymphocytes: B220+; for induction ratio, T-lymphocytes: CD3+; for induction ratio, Monocytes: Mac-1+; for chemotactic activity in vivo (in words): mouse
Method: Since the peptide LVLDPK (SEQ ID NO:1) was chemotactic to tumor cells and macrophages in vitro, we tested whether the peptide was chemotactic in vivo. 25 nmols of the peptide were injected into the peritoneal cavity of C57 black mice. After six hours the cells recruited into the peritoneum were recovered by lavage and identified by flow cytometry. Titration of soluble peptides into the peritoneum induces a cellular infiltrate in a dose dependent manner. The induction ratio is the number of cells of a particular lineage recovered from the peritoneum of a peptide-injected mouse (e.g., 6 hours after injection) normalized for each experiment to the number of cells of the same lineage recovered from the peritoneum of a PBS-injected mouse. Cell numbers for PBS-injected mice ranged from […] to 646,000 cells total; 182,300 to 325,000 CD44^+ cells; 224,000 to 496,000 […] cells; 31,300 to 76,000 B220^+ cells; 18,100 to 21,100 CD3^+ cells), representing the induction of macrophages (Mac-1^+), B cells (B220^+), and T cells (CD3^+). Values represent an average of 6 mice.

MDA-MB-231 cells [2] = test: Inhibition of OPN induced chemotaxis in the chemotactic chamber assay; type: cell-based, human; settings: for MI inhibitory: Table 4, 100 nmoles of peptide, cells migrating towards OPN in presence of buffer divided by number migrating towards OPN in presence of peptide
Method: (§1) To evaluate the potential of peptide analogues to inhibit OPN induced chemotaxis, 100 nmoles of peptide was added to the lower compartment and the response of these cells to OPN was determined as described. MI(buffer) was calculated by dividing the number of cells migrating in response to peptide by the number of cells migrating in response to buffer. MI(inhibitory) equals the number of cells migrating towards OPN in the presence of buffer divided by the number migrating towards OPN in the presence of peptide.

[3] = tested on: MDA-MB-231 cells (CD44+ human breast adenocarcinoma cells); test: Chemotactic chamber (Boyden) assay, migration through polycarbonate filters; type: cell-based; settings: for Migratory Index: Table 3, cells migrating in response to peptide/cells migration in response to LVLDPK; for MI buffer / MI: Table 4; for MI buffer: cells migrating in response to peptide divided by cells migrating in response to buffer; for MI: migratory index; for mean number of migrating cells per random high power field: Table 1, 4 hours; for mean number of migrating cells per six random high powered fields: Table 2; for chemotactic response of MDA-MB231 (in words): p<0.01, 200 ng of bone OPN
Method: Each peak was then tested for mediation of chemotaxis or for its ability to inhibit OPN mediated chemotaxis using the chemotactic assay as follows (see e.g., Weber et al. (1996) Science 271:509-512). Briefly, uncoated polycarbonated filters (pore size […] ) were used to separate the upper and lower chambers of chemotactic wells. 1×10^3 MDA-MB-231 cells (CD44^+human breast adenocarcinoma cells) were added to the upper chamber and incubated in the presence or absence of the indicated 50 pmols peptide. After 4 hours, the filters were removed, fixed in methanol arid stained with hematoxylin and eosin. Cells which have responded to the peptide, migrate to various areas of the lower surface and can be counted microscopically. Each data point is reported as the mean number of migrating cells per random high power field.
Peptide 51 was identified as being chemotactic. The peptide was sequenced using a gas-phase sequenator and determined to have the sequence LVLDPK (SEQ ID NO:1). To confirm that chemotaxis was due to this peptide, a 16 amino acid peptide spanning the chemotactic sequence in OPN was synthesized and tested for its chemotactic properties. The resulting peptide, SP64 has the sequence KFHSHKDKLVLDPKSK (SEQ ID NO:2) and containing the chemotactic sequence from residues 9-14. 2×10^4 MDA-MB-231 cells were assayed for chemotactic response to the indicated peptides as described above. Each data point is reported as the mean number of migrating cells per six random high powered fields ± standard error of the mean. Each experiment was repeated four times.
To test the amino acid specificity for chemotactic response several substitutions were created in the chemotactic sequence and the new peptides tested for their ability to induce chemotaxis. Data are expressed as migratory index (cells migrating in response to peptide/cells migration in response to LVLDPK, SEQ ID NO:1).
as §1

peritoneal exudate cells = test: In vivo cellular migration after intraperitoneal injection of osteopontin, peritoneal exudate flow cytometry; set-up: species or system Mice
Method: Mice were injected intraperitoneally with varying dosages of K7 osteosarcoma-derived osteopontin. All injection volumes were 200 μl. Injections of vehicle alone (PBS) served as negative controls and vehicle plus 20 μg lipopolysaccharide (LPS) injections served as positive controls for elicitation of peritoneal exudates.
Mice were sacrificed by CO2-asphyxiation at varying times following injection. Immediately after sacrifice, peritoneal exudate was recovered by intraperitoneal injection and recovery of 10 mL PBS. The lavage procedure was performed twice on each mouse. Following this, red blood cells were lysed by hypotonic lysis with ACK lysis buffer (0.15 M NH4Cl, 1.0 mM KHCO3, 0.1 mM Na2EDTA, pH 7.4) for 5 minutes at room temperature, and the preparation was washed in DMEM, 5% FBS. Cells were resuspended in DMEM, 5% FBS for fluorescent antibody staining.
Each sample of cells to be analyzed for specific surface markers was suspended in DMEM, 5% FBS at a concentration of 0.2 to 1 million cells in 50 μl. Fluorescence-labeled antibodies were added at 1 μg/1×10^6 cells, and incubated with the cells for 30 minutes at 4° C. Samples were washed twice with 200 μl of PBS following antibody staining and fixed with 500 μl of 2% paraformaldehyde in PBS. Peritoneal exudate cells were analyzed by dual-color flow cytometry for expression of CD44 (PE), CD 11 b (Mac-1, FITC, macrophage marker), B220 (FITC, B-cell marker), and CD3 (FITC, T-cell marker). All antibodies were purchased from PharMingen and flow cytometric analysis was done using a Coulter EPICS flow cytometer. Controls for non-specific binding and single color controls were included.
To further characterize the effects of osteopontin on in vivo cellular migration, a time course experiment was performed using an osteopontin dosage that elicited peak levels of infiltration. The total cellular response to osteopontin administration peaked sharply at 4 to 6 hours. This is likely to be due to a high rate of clearance from the peritoneal cavity.

Caspase 8 = test: FLICE/Caspase-8 Fluorometric Protease Assay; type: cell-based, human; settings: 100 nM, 12 hours, MDA-MB-231 cells
Method: (§2) One million MDA-MB-231 cells were incubated with 100 nM of the OPN, LVVDPK (SEQ ID NO:8), Ac-MLDP (SEQ ID NO:23) or Ac-HKDKMLDP (SEQ ID NO:24) in DME containing 10% FBS in a humidified atmosphere of 5% CO2 at […]. After 12 hours, Caspase 8 and the % of apoptotic cells were determined. Caspase was determined by a fluorescent assay using Chemicon's FLICE/Caspase-8 Fluorometric Protease Assay Kit as described by the manufacturers. Apoptosis was determined using TUNEL using the “In situ Cell Death Detection Kit” (Boehringer-Mannheim, Germany).

MDA-MB-231 cells [4] = test: Apoptosis by TUNEL (In situ Cell Death Detection Kit); type: cell-based, human; settings: 100 nM, 12 hours
Method: as §2

macrophage = test: Inhibition of macrophage recruitment by osteopontin, C5a and fibronectin; settings: C5a and by fibrorectin
[5] = labelled agent in lower chamber, Ab64 in upper chamber
[6] = labelled agent in lower chamber, OPN in upper chamber
[7] = labelled agent in lower chamber, PBS in upper chamber, 2×10^4 cells
[8] = labelled agent in lower chamber, SP64 in upper chamber
[9] = labelled agent in lower chamber, pep 51 in upper chamber
[10] = labelled agent in upper chamber, PBS in lower chamber

“VLDPK (OTHER INFORMATION: Description of Artificial Sequence:Synthetic Peptide) [pepF]” was tested, and the “induction ratio, Total” value [1] was 4, the “induction ratio, Total CD44” value [1] was 3.1 and the “induction ratio, B-lymphocytes” value [1] was 1.1. The “induction ratio, T-lymphocytes” value [1] was 0.8, the “induction ratio, Monocytes” value [1] was 2.8 and the “chemotactic activity in vivo (in words)” value [1] was “chemotactic but exhibited less activity”. For the same substance, the MI inhibitory (MDA-MB-231 cells [2]) was 7, the “Migratory Index” value [3] was 0.7 and the MI buffer [3] was 6. It also gave an MI [3] of 0.7.

With “LVLDPK (OTHER INFORMATION: Description of Artificial Sequence:Synthetic Peptide) [peptide 51, chemotactic tryptic peptide of osteopontin]” the “induction ratio, Total” value [1] was 8.6*, the “induction ratio, Total CD44” value [1] was 7.9* and the “induction ratio, B-lymphocytes” value [1] was 1.3. The “induction ratio, T-lymphocytes” value [1] was 1.3, the “induction ratio, Monocytes” value [1] was 7.1* and the “chemotactic activity in vivo (in words)” value [1] was “chemotactic to macrophages in vivo”. The MI inhibitory (MDA-MB-231 cells [2]) was 10, the “chemotactic activity (in words)” value [3] was “chemotactic” and the “mean number of migrating cells per random high power field” value ([3]; labelled peptide (50 pmols) in lower chamber, PBS in upper chamber, 1×10^3 cells) was 68* cells per random high power field. For the same substance, the “mean number of migrating cells per random high power field” value ([3]; labelled peptide in lower chamber, peptide 49 in upper chamber) was 83* cells per random high power field, the “mean number of migrating cells per random high power field” value ([3]; labelled peptide in lower chamber, peptide 50 in upper chamber) was 56* cells per random high power field and the “mean number of migrating cells per random high power field” value ([3]; labelled peptide in lower chamber, peptide 51 in upper chamber) was 32 cells per random high power field. The “mean number of migrating cells per random high power field” value ([3]; labelled peptide in lower chamber, peptide 52 in upper chamber) was 78* cells per random high power field, the “mean number of migrating cells per random high power field” value ([3]; labelled peptide in lower chamber, peptide 53 in upper chamber) was 62* cells per random high power field and the “mean number of migrating cells per random high power field” value ([3]; labelled peptide in upper chamber, PBS in lower chamber) was 13 cells per random high power field. For the same substance, the “mean number of migrating cells per six random high powered fields” value [3, 5] was 21 cells per six random high powered fields, the “mean number of migrating cells per six random high powered fields” value [3, 6] was 48 cells per six random high powered fields and the “mean number of migrating cells per six random high powered fields” value [3, 7] was 248 cells per six random high powered fields. The “mean number of migrating cells per six random high powered fields” value [3, 8] was 109 cells per six random high powered fields, the “mean number of migrating cells per six random high powered fields” value [3, 9] was 65 cells per six random high powered fields and the “mean number of migrating cells per six random high powered fields” value [3, 10] was 6 cells per six random high powered fields. For the same substance, the “Migratory Index” value [3] was 1, the MI buffer [3] was 10 and the MI [3] was 1. For the same substance, the “chemotactic response of MDA-MB231 (in words)” value [3] was “stimulated the chemotactic response”.

For “OPN: osteopontin protein; bone OPN in vitro, K7 osteosarcoma-derived osteopontin in Example 3”, the “induction ratio, Total” value [1] was 11.3, the “induction ratio, Total CD44” value [1] was 9.6* and the “induction ratio, B-lymphocytes” value [1] was 1.2. The “induction ratio, T-lymphocytes” value [1] was 1, the “induction ratio, Monocytes” value [1] was 10.4* and the “mean number of migrating cells per six random high powered fields” value [3, 5] was 36 cells per six random high powered fields. For the same substance, the “mean number of migrating cells per six random high powered fields” value [3, 6] was 16 cells per six random high powered fields, the “mean number of migrating cells per six random high powered fields” value [3, 7] was 214 cells per six random high powered fields and the “mean number of migrating cells per six random high powered fields” value [3, 8] was 187 cells per six random high powered fields. For the same substance, the “mean number of migrating cells per six random high powered fields” value [3, 9] was 44 cells per six random high powered fields, the “mean number of migrating cells per six random high powered fields” value [3, 10] was 23 cells per six random high powered fields and the “chemotactic response of MDA-MB231 (in words)” value [3] was “stimulated the chemotactic response”. For the same substance, the “number of CD3+ and B220+ cells” value (peritoneal exudate cells; 6 hours after injection) was “only marginally elevated”, the “number of Mac-1+ cells in the infiltrate” value (peritoneal exudate cells; 6 hours after injection, over basal levels) was “increased fivefold over basal levels” and the peritoneal cells recovered (peritoneal exudate cells; OPN alone) was 1.16 million cells. For the same substance, the “number of CD44+ Mac1+ cells” value (peritoneal exudate cells; at a dose around 7 μg) was “nearly sixfold reduction”, the “dose of peak response of the cellular infiltrate” value (peritoneal exudate cells; intraperitoneal, 6 hours after injection) was “around 13 μg” and the “cellular infiltrate (in words)” value (peritoneal exudate cells; titration into the peritoneum, 6 hours after injection) was “dose dependent increase”.

“LVVDPK (OTHER INFORMATION: Description of Artificial Sequence:Synthetic Peptide) [pepA′]” was tested, and the “Caspase 8 activity (in words)” value (Caspase 8) was “virtually undetectable”, the MI inhibitory (MDA-MB-231 cells [2]) was 8 and the “apoptosis (in words)” value (MDA-MB-231 cells [4]) was “virtually undetectable”. The MI buffer [3] was 9 and the MI [3] was 1.

In the case of “VLEP (OTHER INFORMATION: Description of Artificial Sequence:Synthetic Peptide) [pepJ′]”, the “inhibition of chemotaxis by peptide (in words)” value (MDA-MB-231 cells [2]; migratory index against peptide 51) is reported as “inhibitory for chemotaxis”, the “Migratory Index” value [3] is reported as 0.1 and the “inhibition of macrophage recruitment” value (macrophage) is reported as “inhibits macrophage recruitment”.

“LVLEPK (OTHER INFORMATION: Description of Artificial Sequence:Synthetic Peptide) [pepJ]” was tested, and the MI inhibitory (MDA-MB-231 cells [2]) was 9, the “Migratory Index” value [3] was 0.6 and the MI buffer [3] was 6. For the same substance, the MI [3] was 0.6.

For “LVPDPK (OTHER INFORMATION: Description of Artificial Sequence:Synthetic Peptide) [pepB]”, the MI inhibitory (MDA-MB-231 cells [2]) was 8, the “Migratory Index” value [3] was 1 and the MI buffer [3] was 10. For the same substance, the MI [3] was 1.

With Acetyl-LVLDP (Ac-LVLDP) [pepK″] the MI inhibitory (MDA-MB-231 cells [2]) was 4 and the MI buffer [3] was 1.
